Entries after “also recorded” stand apart in the source; their conditions may differ. Positions of bridges follow the written chain, without caps; N, C: chain ends. Residues, ends and D or L forms follow the SMILES beside them.
Assays:
Type in all cases: cell-based
[1] = tested on: 3T3 cells not expressing N-cadherin, N-CAM, or L1 (control cells); assay: Neurite outgrowth of mouse cerebellar neurons on control 3T3 cells (Example 2); settings: 500 μg/ml
Experimental: Neurons were cultured on monolayers of 3T3 cells transfected with cDNA encoding N-cadherin essentially as described by Doherty and Walsh, Curr. Op. Neurobiol. 4:49-55, 1994; Williams et al., Neuron 13:583-594, 1994; Hall et al., Cell Adhesion and Commun. 3:441-450, 1996; Doherty and Walsh, Mol. Cell. Neurosci. 8:99-111, 1994; Safell et al., Neuron 18:231-242, 1997. Briefly, monolayers of control 3T3 fibroblasts and 3T3 fibroblasts that express N-cadherin were established by overnight culture of 80,000 cells in individual wells of an 8-chamber well tissue culture slide. 3000 cerebellar neurons isolated from post-natal day 3 mouse brains were cultured for 18 hours on the various monolayers in control media (SATO/2%FCS), or media supplemented with various concentrations of the cyclic peptide N-Ac-CHAVC-NH2 (SEQ ID NO:10) or a control peptide without the HAV sequence (N-Ac-CHGVC-NH2 (SEQ ID NO:20)). The cultures were then fixed and stained for GAP43 which specifically binds to the neurons and their neurites. The length of the longest neurite on each GAP43 positive neuron was then measured by computer assisted morphometry.

[2] = tested on: A1N4 human breast epithelial cells; assay: Disruption of breast epithelial cell adhesion, E-cadherin immunostaining; settings: 500 μg/mL, 48 hours
Experimental: A1N4 human breast epithelial cells (kindly provided by Martha Stampfer, Lawrence Berkeley Laboratory, Berkeley, Calif.) were plated on glass coverslips and cultured in F12/DME containing 0.5% FCS and 10 ng/mL EGF for 24 hours. Fresh medium containing the cyclic peptides (final concentration 500 μg/mL media) N-Ac-CHAVC-NH2 (SEQ ID NO:10) or N-Ac-CHGVC-NH2 (SEQ ID NO:20) was then added. Following 24 hours of culture in the presence of the peptides, the medium was removed and fresh medium containing the peptides was added. The cells were fixed 24 hours later with cold methanol and stored in phosphate buffered saline (PBS).
Coverslips were blocked for 1 hour in 3% ovalbumin/PBS and incubated for a further 1 hour in the presence of 1 μg/mL mouse anti-E-cadherin antibody (Zymed, Gaithersburg, Md.). Primary and secondary antibodies were diluted in PBS containing 6% normal goat serum. Following incubation in the primary antibody, coverslips were washed 3 times for 5 minutes each in PBS and incubated for 1 hour with goat anti-mouse conjugated to fluorescein (Kiekegard and Perry, South San Francisco, Calif.) diluted 1:100. Following a further wash in PBS (3×5 minutes) coverslips were mounted in Vectashield (Vector Labs, Burlingame, Calif.) and viewed with a Zeiss infinity corrected microscope.

OVCAR-3 = assay: Disruption of human ovarian cancer cell (OVCAR-3) adhesion; settings: for OVCAR3 cell morphology: 24 hours
Experimental: The human ovarian cancer cell line OVCAR-3, which expresses E-cadherin, was used in these experiments. Cells were cultured in RPMI supplemented with insulin and containing 20% FCS. Cells were grown in T-250 culture flasks and maintained by periodic subculturing. Cells were harvested from flasks and seeded in individual wells of 96-well culture dishes (surface area of each well was 0.32 cm^2) at a density of 50,000 cells per well in 0.1 ml media containing the cyclic peptides (at concentrations of 1, 0.1, or 0.01 mg/ml). Media control wells were also established. Cultures were evaluated periodically by microscopic examination under both bright field and phase contrast conditions, and were maintained for 48 hours.

SMILES	effect on neurite outgrowth on control 3T3 cells [1]	E-cadherin staining and monolayer of A1N4 cells [2]	OVCAR3 cell morphology (OVCAR-3; 100 μg/ml)	OVCAR3 cell morphology (OVCAR-3; 1 mg/ml)	effect on OVCAR-3 adhesion (OVCAR-3; 1, 0.1, or 0.01 mg/ml, up to 48 hours)
CC(=O)N[C@H]1CSSC[C@@H](C(N)=O)NC(=O)[C@H](C(C)C)NC(=O)[C@H](C)NC(=O)[C@H](Cc2c[nH]cn2)NC1=O [N-Ac-CHAVC-NH2, N-Ac-Cys-His-Ala-Val-Cys-NH2]	did not inhibit neurite outgrowth	reduced E-cadherin staining with a stitched appearance; also recorded: distribution of E-cadherin is non-contiguous			
CC(=O)N[C@H]1CSSC[C@@H](C(N)=O)NC(=O)[C@H](CO)NC(=O)[C@H](C(C)C)NC(=O)[C@H](C)NC(=O)[C@H](Cc2c[nH]cn2)NC1=O [N-Ac-CHAVSC-NH2, N-Ac-Cys-His-Ala-Val-Ser-Cys-NH2] (Ac-CHAVSC-NH2; disulfide 1-6)			retract form one another	round up	disrupted OVCAR-3 adhesion
